Values of other authors, collected in patent publication EP0848611B1, “TACRINE PATCH” (HEXAL AG, priority 1995, dated 1997).

How the values were obtained:
[1] = in vivo

Nc1c2c(nc3ccccc13)CCCC2 [Tacrin, 1,2,3,4-Tetrahydro-9-acridinamin]
Bioverfügbarkeit ([1]; human): 10-30%
Halbwertszeit ([1]; human): 1,5-3,5 h
therapeutischer Blutspiegel [1]: 5 to 70 ng/mL
Anstieg der ALT-Werte (Alaninaminotransferase) (patients): ≤ 20 fachen der oberen normalen Grenze
hepatotoxischer Effekt tritt auf (share of patients): etwa der Hälfte der Patienten
